For data set [1], the system named is ARH77 cells. Type of data set: cell-based. As to conditions: human, 4 days, 2 mM. On the procedure:
To determine the growth inhibitory effects of compounds 2a, SPY, 2c, 2d, ARH77 cells (2×10^4 cells in 100 μl in each well of a 96 well plate) were incubated with each compound or an equivalent amount of DMSO. Four days later, cell growth was determined using the Aqueous One Solution Cell Proliferation Assay (MTS) (Promega) according to the manufacturer's instructions. Each determination was made in triplicate. Relative cell growth was determined by subtracting the absorbance of wells containing medium and lacking cells, and dividing by absorbance values derived from cells treated with an equivalent volume of DMSO.
Reduction of SFZ in the gut to give SPY is thought to be responsible for much of the toxicity associated with therapy. The putative reduction products of the novel SFZ derivatives were associated with increased or decreased toxicity was investigated. ARH77 cells were treated for 4 days with compounds 2a (i.e., putative reduction product of 3a and 3b), 2c (putative reduction product of 3d), and 2d (putative reduction product of 3e and 3f), and SPY (reduction product of SFZ and 3c). Cell growth was determined using an MTS assay. The percent growth inhibition at 2 mM (FIG. 6) was measured. […] Cytotoxicity of 2a and 2c was slightly less than SPY with 27±8% and 24±3% growth inhibition, respectively. 2d was essentially non-toxic in this assay with −6±16% growth inhibition. The ability of compounds 2a, 2c and 2d to interfere with NF-kB activity in LPS treated U937-kBluc cells was also tested.
ARH77 cells were incubated with 2 mM of 2a, 2c, 2d, SPY or DMSO as a solvent control. After 4 days, cell growth was determined using an MTS assay. Percentage growth inhibition for each compound relative to DMSO treated cells was determined. Mean growth inhibition is shown (±SD). Data are derived from two separate experiments, each performed in triplicate.

Data set [2] concerns NF-kB. The data set is described as follows: NF-kB luciferase reporter activity in LPS-stimulated U937-kBluc cells. Format: cell-based, human. As to conditions: for average luciferase activity, % of the activity in DMSO treated cells: 2 mM, ±SD; for IC50: Homo sapiens, U937-kBluc cells, LPS 0.3 μg/ml, 6 hours, mean of duplicate determinations ±SD, read-out: IC50 for inhibition of LPS-induced NF-kB activity. As to the method:
U937-kBluc cells were cultured in a 96 well plate (2×10^4 cells in 100 μl in each well) and stimulated with 0.3 μg/ml LPS (lipopolysaccaride; Sigma Aldrich). After 6 hours, cells were collected and luciferase activity determined using the luclite reagent (Perkin Elmer UK, Beaconsfield, UK) and a Packard TopCount (Perkin Elmer), as described by the manufacturer. To determine the effect of SFZ and analogues, various concentrations of each compound or an equivalent amount of DMSO as a solvent control were added 1 hour prior to addition of LPS. Each determination was made in triplicate. A cell line containing an NF-kB reporter construct was used to determine the effects of SFZ analogues on NF-kB activity. Cells were treated with LPS to induce NF-kB activity in the presence or absence of each compound, or DMSO as a solvent control, and luciferase activity analysed as a measure of NF-kB dependent transcription (FIG. 1). […] U937-kBluc cells were treated with LPS to activate NF-kB in the presence of increasing concentrations of SFZ, derivatives (3a-f), or DMSO as a solvent control. For each concentration of compound, the percentage inhibition of luciferase activity relative to cells treated with an equivalent amount of DMSO was calculated. (A) Representative dose response experiment (♦, 3a; ▪, SFZ). Each data point is the mean of triplicate samples (±SEM). (B) Detailed dose response assays were performed for compounds which gave >50% inhibition at 2 mM. The mean IC50 value (±SD) for inhibition of LPS-induced NF-kB activity is derived from 2 independent experiments, each performed in triplicate.

Turning to `COc1ccc(CNS(=O)(=O)c2ccc(N)cc2)cc1` [Compound 2a, N-(p-methoxybenzyl)-4-aminobenzenesulfonamide], in data set [1], the percent growth inhibition is given as 27±8%.
Still for that read-out and setting: to `CNS(=O)(=O)c1ccc(N)cc1` [Compound 2c] belongs 24±3%.
Regarding `Nc1ccc(S(=O)(=O)NCc2ccc(C(F)(F)F)cc2)cc1` [Compound 2d], the percent growth inhibition in data set [1] was −6±16%.
With `COc1ccc(CNS(=O)(=O)c2ccc(/N=N/c3ccc(O)cc3)cc2)cc1` [Compound 3b], in data set [2], the “average luciferase activity, % of the activity in DMSO treated cells” value was found to be 87.5±3.3% and the IC50 was greater than 2 mM.
Consider `Cc1cc(/N=N/c2ccc(S(=O)(=O)Nc3ccccn3)cc2)cc(C(=O)O)c1O` [Compound 3c, 2-hydroxy-3-methyl-5-[4-(pyridin-2-ylsulfamoyl)-phenylazo]benzoic acid], for which the IC50 in data set [2] turned out to be 1.1 ± 0.04 mM.
The same measure, in the same setting: for `CNS(=O)(=O)c1ccc(/N=N/c2ccc(O)c(C(=O)O)c2)cc1` [Compound 3d, 2-hydroxy-5-(4-methylsulfamoyl-phenylazo)-benzoic acid] the value was 1.24 ± 0.106 mM.
Take `Nc1ccc(O)c(C(=O)O)c1` [Compound 5-ASA, 5-amino salicylic acid, reference compound]: in data set [2], the “average luciferase activity, % of the activity in DMSO treated cells” value is given as 121±32% and the IC50 is greater than 2 mM.
The like results for `Nc1ccc(S(=O)(=O)Nc2ccccn2)cc1` [SPY, sulfapyridine, reference compound] were, in that order, 151±71% and greater than 2 mM.

These data come from patent US20080090788A1, “Chemical Compounds” (priority 2005, published 2008).
